Experimental data taken from patent US8524750B2, “(Pyrazol-3-yl)-1,3,4-thiadiazol-2-amine and (pyrazol-3-yl)-1,3,4-thiazol-2-amine compounds” (Glaxo Group Limited, priority 2009, dated 2013).
Converted amounts (≈) assume the structure as drawn.

Tests used:
[1] = target: T1, Mycobacterium tuberculosis InhA (Mycobacterium tuberculosis, UniProt P9WGR1); assay: Mycobacterium tuberculosis InhA Inhibition Assay (Enzyme Assay); format: biochemical; conditions: IC50 value, 5 nM InhA, 50 μM DDCoA, 50 μM NADH, PIPES buffer pH 6.8; initial velocities of NADH consumption
T1 construct: made in house; host or cells: E. coli
How it was run: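 Recombinant Mtb InhA (E. coli-expressed), 5 nM, with 50 μM dodecenoyl-CoA and 50 μM NADH in 30 mM PIPES pH 6.8, 0.05% BSA; reaction started with enzyme. NADH fluorescence (ex 340/em 480 nm) followed 20 min at room temperature; IC50 from initial velocities of NADH consumption.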

[2] = test system: Mycobacterium tuberculosis H37Rv; assay: Mycobacterium tuberculosis H37Rv Inhibition Assay (Whole Cell Assay); format: cell-based; conditions: ATCC 25618 / H37Rv, H37Rv strain (ATCC25618), Middlebrook 7H9, six days at 37° C., resazurin fluorescence after 48 hours

T1 sequence (P9WGR1 whole entry, looked up): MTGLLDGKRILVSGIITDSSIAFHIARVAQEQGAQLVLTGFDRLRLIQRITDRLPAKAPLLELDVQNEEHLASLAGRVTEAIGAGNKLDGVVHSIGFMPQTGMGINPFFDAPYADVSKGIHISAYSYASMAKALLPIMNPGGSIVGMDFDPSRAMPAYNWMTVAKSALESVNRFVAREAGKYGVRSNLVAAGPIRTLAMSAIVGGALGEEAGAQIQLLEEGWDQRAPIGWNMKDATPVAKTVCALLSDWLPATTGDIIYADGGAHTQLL

Row | SMILES | IC50 [1] [nM] | MIC [2] [µM]
1 | Cc1cc(C)n(C(C)c2nnc(Nc3ccn(Cc4c(F)ccc(F)c4F)n3)s2)n1 (stereo not drawn) [Example 77, 5-[1-(3,5-dimethyl-1H-pyrazol-1-yl)ethyl]-N-{1-[(2,3,6-trifluorophenyl)methyl]-1H-pyrazol-3-yl}-1,3,4-thiadiazol-2-amine] | < 115 | ≤ 1
2 | Cc1csc(C(C)(O)c2nnc(Nc3ccn(Cc4cccc(Cl)c4F)n3)s2)n1 (stereo not drawn) [Example 79, 1-[5-({1-[(3-chloro-2-fluorophenyl)methyl]-1H-pyrazol-3-yl}amino)-1,3,4-thiadiazol-2-yl]-1-(4-methyl-1,3-thiazol-2-yl)ethanol] | < 111 | ≤ 1
3 | Cc1csc(C(C)(O)c2nnc(Nc3ccn(Cc4cccc(F)c4F)n3)s2)n1 (stereo not drawn) [Example 80, 1-[5-({1-[(2,3-difluorophenyl)methyl]-1H-pyrazol-3-yl}amino)-1,3,4-thiadiazol-2-yl]-1-(4-methyl-1,3-thiazol-2-yl)ethanol] | < 115 | ≤ 1
4 | Cc1cc(C)n(C(C)c2nnc(Nc3ccn(Cc4c(F)ccc(C)c4F)n3)s2)n1 (stereo not drawn) [Example 81, N-{1-[(2,6-difluoro-3-methylphenyl)methyl]-1H-pyrazol-3-yl}-5-[1-(3,5-dimethyl-1H-pyrazol-1-yl)ethyl]-1,3,4-thiadiazol-2-amine] | < 116 | ≤ 1
5 | CCOc1c(F)ccc(F)c1Cn1ccc(Nc2nnc(C(C)n3nc(C)cc3C)s2)n1 (stereo not drawn) [Example 82, 5-[1-(3,5-dimethyl-1H-pyrazol-1-yl)ethyl]-N-(1-{[2-(ethyloxy)-3,6-difluorophenyl]methyl}-1H-pyrazol-3-yl)-1,3,4-thiadiazol-2-amine] | < 109 | 4 to 10 (≈ 1.84 to 4.6 µg/mL)
6 | Cc1csc(C(C)(O)c2nnc(Nc3ccn(Cc4cccc(C)c4F)n3)s2)n1 (stereo not drawn) [Example 83, 1-[5-({1-[(2-fluoro-3-methylphenyl)methyl]-1H-pyrazol-3-yl}amino)-1,3,4-thiadiazol-2-yl]-1-(4-methyl-1,3-thiazol-2-yl)ethanol] | < 116 | ≤ 1
7 | Cc1csc(C(C)(O)c2nnc(Nc3ccn(Cc4c(F)ccc(C)c4F)n3)s2)n1 (stereo not drawn) [Example 84, 1-[5-({1-[(2,6-difluoro-3-methylphenyl)methyl]-1H-pyrazol-3-yl}amino)-1,3,4-thiadiazol-2-yl]-1-(4-methyl-1,3-thiazol-2-yl)ethanol] | < 111 | ≤ 1
8 | Cc1csc(C(C)c2nnc(Nc3ccn(Cc4c(F)ccc(C)c4F)n3)s2)n1 (stereo not drawn) [Example 85, N-{1-[(2,6-difluoro-3-methylphenyl)methyl]-1H-pyrazol-3-yl}-5-[1-(4-methyl-1,3-thiazol-2-yl)ethyl]-1,3,4-thiadiazol-2-amine] | < 116 | 1 to 4 (≈ 0.433 to 1.73 µg/mL)
9 | Cc1ccn(C(C)c2nnc(Nc3ccn(Cc4c(F)ccc(C)c4F)n3)s2)n1 (stereo not drawn) [Example 86, N-{1-[(2,6-difluoro-3-methylphenyl)methyl]-1H-pyrazol-3-yl}-5-[1-(3-methyl-1H-pyrazol-1-yl)ethyl]-1,3,4-thiadiazol-2-amine] | < 120 | ≤ 1
10 | Cc1cc(C)n(C(C)c2nnc(Nc3ccn(Cc4c(F)ccc(N)c4F)n3)s2)n1 (stereo not drawn) [Example 87, N-{1-[(3-amino-2,6-difluorophenyl)methyl]-1H-pyrazol-3-yl}-5-[1-(3,5-dimethyl-1H-pyrazol-1-yl)ethyl]-1,3,4-thiadiazol-2-amine] | < 116 | 1 to 4 (≈ 0.43 to 1.72 µg/mL)
11 | CCOC(=O)Nc1cccc(Cn2ccc(Nc3nnc(C(C)(O)c4nc(C)cs4)s3)n2)c1F (stereo not drawn) [Intermediate 121, Ethyl (2-fluoro-3-{[3-({5-[1-hydroxy-1-(4-methyl-1,3-thiazol-2-yl)ethyl]-1,3,4-thiadiazol-2-yl}amino)-1H-pyrazol-1-yl]methyl}phenyl)carbamate] | < 99.3 | 1 to 4 (≈ 0.504 to 2.01 µg/mL)
12 | CC(=O)Nc1ccc(F)c(Cn2ccc(Nc3nnc(C(C)n4nc(C)cc4C)s3)n2)c1F (stereo not drawn) [Intermediate 122, N-(3-{[3-({5-[1-(3,5-dimethyl-1H-pyrazol-1-yl)ethyl]-1,3,4-thiadiazol-2-yl}amino)-1H-pyrazol-1-yl]methyl}-2,4-difluorophenyl)acetamide] | 106 to 212 | > 10
